Patent US11207321B2, “Methods and medical uses” (Institute of Cancer Research: Royal Cancer Hospital (The), priority 2017, dated 2021)

System: palbociclib-resistant breast cancer cell lines (wild type and LTED)
Test: Proliferation assays with MPS1 inhibitors in panel of palbociclib-resistant breast cancer cell lines
Type: cell-based
Details: addition of CCT289346 to palbociclib
Method: Wt cells were stripped of E2 for 72 hrs prior to experiment. After 24 hrs cells were treated with escalating doses of MPS1 inhibitors±palbocliclib. Media was replaced after 3 days and cell viability was assessed after 6 days using the CellTitre-Glo® Luminescent Cell Viability Assay (Promega) according to manufacturer's instructions.

With CCOc1cc(-c2nncn2C)ccc1Nc1ncc2cc(C)nc(NCC(C)(C)C)c2n1 [CCT289346, N2-(2-ethoxy-4-(4-methyl-4H-1,2,4-triazol-3-yl)phenyl)-6-methyl-N8-neopentylpyrido[3,4-d]pyrimidine-2,8-diamine] the “effect of combination with palbociclib” value was “synergistic/additive effect”.
